IC50 data for 25 molecules are collected here from US11124538B2, “Neuroactive steroids, compositions, and uses thereof” (Sage Therapeutics, Inc., priority 2015, dated 2021).

Some results are limits rather than exact numbers.

For the assay, the target named is [35S]-TBPS binding to rat brain cortical membranes in the presence of 5 μM GABA (GABA receptor complex). Kind of assay: Steroid inhibition of [35S]-TBPS binding (radioligand displacement). The following applies: 3 nM [35S]-TBPS. Here is the method:
TBPS binding assays using rat brain cortical membranes in the presence of 5 μM GABA has been described (Gee et al, J. Pharmacol. Exp. Ther. 1987, 241, 346-353; Hawkinson et al, Mol. Pharmacol. 1994, 46, 977-985; Lewin, A. H et al., Mol. Pharmacol. 1989, 35, 189-194).
Briefly, cortices are rapidly removed following decapitation of carbon dioxide-anesthetized Sprague-Dawley rats (200-250 g). The cortices are homogenized in 10 volumes of ice-cold 0.32 M sucrose using a glass/teflon homogenizer and centrifuged at 1500×g for 10 min at 4° C. The resultant supernatants are centrifuged at 10,000×g for 20 min at 4° C. to obtain the P2 pellets. The P2 pellets are resuspended in 200 mM NaCl/50 mM Na—K phosphate pH 7.4 buffer and centrifuged at 10,000×g for 10 min at 4° C. This washing procedure is repeated twice and the pellets are resuspended in 10 volumes of buffer. Aliquots (100 μL) of the membrane suspensions are incubated with 3 nM [^35S]-TBPS and 5 μL aliquots of test drug dissolved in dimethyl sulfoxide (DMSO) (final 0.5%) in the presence of 5 μM GABA. The incubation is brought to a final volume of 1.0 mL with buffer. […] Following a 90 min incubation at room temp, the assays are terminated by filtration through glass fiber filters (Schleicher and Schuell No. 32) using a cell harvester (Brandel) and rinsed three times with ice-cold buffer. Filter bound radioactivity is measured by liquid scintillation spectrometry. Non-linear curve fitting of the overall data for each drug averaged for each concentration is done using Prism (GraphPad). […] The concentration of test compound producing 50% inhibition (IC50) of specific binding and the maximal extent of inhibition (Imax) are determined for the individual experiments with the same model used for the overall data and then the means±SEM.s of the individual experiments are calculated.
Various compounds are or can be screened to determine their potential as modulators of [^35S]-TBPS binding in vitro. These assays are or can be performed in accordance with the above discussed procedures.
On the technique in general: In a radioligand displacement assay an active substance lowers the binding of a labelled ligand.
For orientation: IC50 means the midpoint of a concentration-inhibition curve. For `COC[C@]12CC[C@@](C)(O)C[C@H]1CC[C@H]1[C@@H]3CC[C@H](C(=O)Cn4nc5cc(F)cc(F)c5n4)[C@@]3(C)CC[C@@H]12` [Compound 10], the half-inhibitory concentration (IC50) was less than 10 nM.

As for `COC[C@]12CC[C@@](C)(O)C[C@H]1CC[C@H]1[C@@H]3CC[C@H](C(=O)Cn4nnc5cc(Cl)cnc54)[C@@]3(C)CC[C@@H]12` [Compound 12], the IC50 was less than 10 nM.

As for `COC[C@]12CC[C@@](C)(O)C[C@H]1CC[C@H]1[C@@H]3CC[C@H](C(=O)Cn4nc5cc(Cl)cnc5n4)[C@@]3(C)CC[C@@H]12` [Compound 13], the half-inhibitory concentration (IC50) is less than 10 nM.

Consider `COC[C@]12CC[C@@](C)(O)C[C@H]1CC[C@H]1[C@@H]3CC[C@H](C(=O)Cn4cc5ccc(F)cc5n4)[C@@]3(C)CC[C@@H]12` [Compound 14], for which the 50% inhibitory concentration (IC50) is less than 10 nM.

For the molecule `COC[C@]12CC[C@@](C)(O)C[C@H]1CC[C@H]1[C@@H]3CC[C@H](C(=O)Cn4ncc5ccc(F)cc54)[C@@]3(C)CC[C@@H]12` [Compound 15], the IC50 is less than 10 nM.

With `COC[C@]12CC[C@@](C)(O)C[C@H]1CC[C@H]1[C@@H]3CC[C@H](C(=O)Cn4nnc5ccccc54)[C@@]3(C)CC[C@@H]12` [Compound 18], the half-inhibitory concentration (IC50) is less than 10 nM.

With `COC[C@]12CC[C@@](C)(O)C[C@H]1CC[C@H]1[C@@H]3CC[C@H](C(=O)Cn4cc(SC)cn4)[C@@]3(C)CC[C@@H]12` [Compound 21], the half-inhibitory concentration (IC50) was less than 10 nM.

Regarding `COC[C@]12CC[C@@](C)(O)C[C@H]1CC[C@H]1[C@@H]3CC[C@H](C(=O)Cn4nc5ccc(Cl)c(F)c5n4)[C@@]3(C)CC[C@@H]12` [Compound 24], the concentration for half-maximal inhibition (IC50) is less than 10 nM.

Turning to `COC[C@]12CC[C@@](C)(O)C[C@H]1CC[C@H]1[C@@H]3CC[C@H](C(=O)Cn4nnc5ccc(OC)cc54)[C@@]3(C)CC[C@@H]12` [Compound 25], the 50% inhibitory concentration (IC50) was less than 10 nM.

As to `COC[C@]12CC[C@@](C)(O)C[C@H]1CC[C@H]1[C@@H]3CC[C@H](C(=O)Cn4nnc5cc(OC)ccc54)[C@@]3(C)CC[C@@H]12` [Compound 26], the IC50 is less than 10 nM.

In the case of `COC[C@]12CC[C@@](C)(O)C[C@H]1CC[C@H]1[C@@H]3CC[C@H](C(=O)Cn4nc5ccc(OC)cc5n4)[C@@]3(C)CC[C@@H]12` [Compound 27], the half-maximal inhibitory concentration (IC50) is less than 10 nM.

With `COC[C@]12CC[C@@](C)(O)C[C@H]1CC[C@H]1[C@@H]3CC[C@H](C(=O)Cn4nnc5c(OC)cccc54)[C@@]3(C)CC[C@@H]12` [Compound 28], the IC50 is less than 10 nM.

Turning to `COC[C@]12CC[C@@](C)(O)C[C@H]1CC[C@H]1[C@@H]3CC[C@H](C(=O)Cn4nnc5cccc(OC)c54)[C@@]3(C)CC[C@@H]12` [Compound 29], the IC50 is less than 10 nM.

In the case of `COC[C@]12CC[C@@](C)(O)C[C@H]1CC[C@H]1[C@@H]3CC[C@H](C(=O)Cn4nc5cccc(OC)c5n4)[C@@]3(C)CC[C@@H]12` [Compound 30], the IC50 was less than 10 nM.

Turning to `COC[C@]12CC[C@@](C)(O)C[C@@H]1CC[C@H]1[C@@H]3CC[C@H](C(=O)Cn4cc(SC)cn4)[C@@]3(C)CC[C@@H]12` [Compound 34], the IC50 was 10 to 50 nM.

As for `COC[C@]12CC[C@@](C)(O)C[C@@H]1CC[C@H]1[C@@H]3CC[C@H](C(=O)Cn4cc([S+](C)[O-])cn4)[C@@]3(C)CC[C@@H]12` (stereo partly shown) [Compound 35], the 50% inhibitory concentration (IC50) is greater than 500 nM.

As to `COC[C@]12CC[C@@](C)(O)C[C@H]1CC[C@H]1[C@@H]3CC[C@H](C(=O)Cn4cc5ccncc5n4)[C@@]3(C)CC[C@@H]12` [Compound 46], the IC50 is 10 to 50 nM.

Turning to `COC[C@]12CC[C@@](C)(O)C[C@@H]1CC[C@H]1[C@@H]3CC[C@H](C(=O)Cn4nnc5c(F)c(Cl)ccc54)[C@@]3(C)CC[C@@H]12` [Compound 51], the 50% inhibitory concentration (IC50) is less than 10 nM.

For `CC(C)OC[C@]12CC[C@@](C)(O)C[C@H]1CC[C@H]1[C@@H]3CC[C@H](C(=O)Cn4nnc5c(F)c(F)ccc54)[C@@]3(C)CC[C@@H]12` [Compound 68], the IC50 is less than 10 nM.

Regarding `CC(C)OC[C@]12CC[C@@](C)(O)C[C@H]1CC[C@H]1[C@@H]3CC[C@H](C(=O)Cn4nnc5ccc(F)c(F)c54)[C@@]3(C)CC[C@@H]12` [Compound 69], the concentration for half-maximal inhibition (IC50) is less than 10 nM.

As to `CC(C)OC[C@]12CC[C@@](C)(O)C[C@H]1CC[C@H]1[C@@H]3CC[C@H](C(=O)Cn4nc5ccc(F)c(F)c5n4)[C@@]3(C)CC[C@@H]12` [Compound 70], the half-inhibitory concentration (IC50) was less than 10 nM.

For the molecule `CC(C)OC[C@]12CC[C@@](C)(O)C[C@H]1CC[C@H]1[C@@H]3CC[C@H](C(=O)Cn4ncnn4)[C@@]3(C)CC[C@@H]12` [Compound 72], the 50% inhibitory concentration (IC50) was less than 10 nM.

On to `COC[C@]12CC[C@@](C)(O)C[C@@H]1CC[C@H]1[C@@H]3CC[C@H](C(=O)Cn4ncc(C(=O)O)n4)[C@@]3(C)CC[C@@H]12` [Compound 81], for which the 50% inhibitory concentration (IC50) is greater than 500 nM.

As for `COC[C@]12CC[C@@](C)(O)C[C@@H]1CC[C@H]1[C@@H]3CC[C@H](C(=O)Cn4cc(C(=O)O)nn4)[C@@]3(C)CC[C@@H]12` [Compound 82], the IC50 is greater than 500 nM.

In the case of `COC[C@]12CC[C@@](C)(O)C[C@@H]1CC[C@H]1[C@@H]3CC[C@H](C(=O)Cn4ncc(CO)n4)[C@@]3(C)CC[C@@H]12` [Compound 85], the concentration for half-maximal inhibition (IC50) was greater than 500 nM.
